# Assays:
# Type in all cases: functional
# Setaria viridis = test: Herbicidal activity against Setaria viridis (green foxtail) assessed as killing at 6 kg/ha by post-emergent activity assay
# Sorghum halepense = test: Herbicidal activity against Sorghum halepense (Johnson grass) assessed as killing at 6 kg/ha by post-emergent activity assay
# Echinochloa crus-galli = test: Herbicidal activity against Echinochloa crus-galli (barnyard grass) assessed as killing at 6 kg/ha by post-emergent activity assay
# Aspergillus niger [1] = test: Antifungal activity against Aspergillus niger assessed as fungus colony inhibition at 100 ppm measured after 96 hr by agar dilution method
# Aspergillus niger [2] = test: Antifungal activity against Aspergillus niger assessed as fungus colony inhibition at 1000 ppm measured after 96 hr by agar dilution method
# Bipolaris oryzae [3] = test: Antifungal activity against Bipolaris oryzae assessed as fungus colony inhibition at 100 ppm measured after 96 hr by agar dilution method
# Bipolaris oryzae [4] = test: Antifungal activity against Bipolaris oryzae assessed as fungus colony inhibition at 1000 ppm measured after 96 hr by agar dilution method
# Aspergillus niger [5] = test: Antifungal activity against Aspergillus niger assessed as fungus colony inhibition at 10 ppm measured after 96 hr by agar dilution method
# Abutilon theophrasti = test: Herbicidal activity against Abutilon theophrasti (velvetleaf) assessed as killing at 6 kg/ha by post-emergent activity assay
# Bipolaris oryzae [6] = test: Antifungal activity against Bipolaris oryzae assessed as fungus colony inhibition at 10 ppm measured after 96 hr by agar dilution method
# Triticum aestivum = test: Herbicidal activity against Triticum aestivum (wheat) assessed as killing at 6 kg/ha by post-emergent activity assay
SMILES,Activity (Setaria viridis) [%],Activity (Sorghum halepense) [%],Activity (Echinochloa crus-galli) [%],inhibition at 100 ppm (Aspergillus niger [1]) [%],inhibition at 1000 ppm (Aspergillus niger [2]) [%],inhibition at 100 ppm (Bipolaris oryzae [3]) [%],inhibition at 1000 ppm (Bipolaris oryzae [4]) [%],inhibition at 10 ppm (Aspergillus niger [5]) [%],Activity (Abutilon theophrasti) [%],inhibition at 10 ppm (Bipolaris oryzae [6]) [%],Activity (Triticum aestivum) [%]
O=c1c2ccccc2nc2sc(COc3ccccc3Cl)nn12,70,40,20,30.2,51.3,40.1,61.4,19.2,20,30.8,60
S=c1nc(COc2ccc(Cl)cc2Cl)n2nc(COc3ccc(Cl)cc3Cl)sc2n1,100,100,100,74.4,88.6,78.6,90.4,64.5,100,61.4,20
S=c1nc(COc2ccc(Cl)cc2Cl)n2nc(COc3ccc(Cl)cc3)sc2n1,20,40,30,74.2,87.2,75.4,88.2,68.4,30,60.6,50
Cc1ccc(OCc2nn3c(-c4ccc(Cl)cc4)nc(=S)nc3s2)c(C)c1,90,80,90,31.4,52.3,49.1,60,20.4,90,31.2,0
Cc1ccc(OCc2nn3c(C)nc(=S)nc3s2)c(C)c1,10,60,40,30,51.4,39.3,59.5,18.6,20,27.4,50
O=C(COc1ccc(Cl)cc1Cl)NC(=S)Nc1nnc(COc2ccc(Cl)cc2)s1,–,–,–,25.4,47,36.2,57.2,13,–,24.2,–
O=C(COc1ccc(Cl)cc1Cl)NC(=S)Nc1nnc(COc2ccc(Cl)cc2Cl)s1,–,–,–,25.2,46.4,32,54,12.4,–,21.9,–
Cc1ccc(OCc2nnc(NC(=S)NC(=O)c3ccc(Cl)cc3)s2)c(C)c1,–,–,–,29,50.3,32.4,55.2,18.4,–,22.8,–
CC(=O)NC(=S)Nc1nnc(COc2ccc(C)cc2C)s1,–,–,–,31.4,55.2,38.4,60.2,20.5,–,20.2,–
O=c1c2ccccc2nc2sc(COc3ccc(Cl)cc3Cl)nn12,30,60,80,25,43.1,31.8,54.4,12.6,20,23.4,50
Cc1ccc(OCc2nn3c(=O)c4ccccc4nc3s2)cc1,40,50,10,25.4,46,35,56.2,13.7,10,25.2,40
Cc1ccc(OCc2nn3c(=O)c4ccccc4nc3s2)cc1C,50,60,50,24.4,42.2,38.6,50.2,12.8,50,21.3,40
O=C(O)c1ccccc1Nc1nnc(COc2ccccc2Cl)s1,–,–,–,25.8,47.3,30.4,52.4,14,–,22.2,–
Cc1ccc(OCc2nnc(Nc3ccccc3C(=O)O)s2)cc1,–,–,–,31,52.2,39.1,59.1,20.9,–,22.2,–
O=C(O)c1ccccc1Nc1nnc(COc2ccc(Cl)cc2Cl)s1,–,–,–,73,84.8,75.3,87.4,68.5,–,60.8,–
Cc1ccc(OCc2nnc(Nc3ccccc3C(=O)O)s2)cc1C,–,–,–,29.1,50.2,30.4,57.4,19,–,25.2,–
COC(=O)Nc1nc2ccccc2[nH]1 [CARBENDAZIM],–,–,–,84.4,98.8,85.2,98,78.6,–,78.3,–

# From ChEMBL document CHEMBL3046580, “Synthesis of Some 2-Aryloxymethyl-1, 3, 4-thiadiazolo[2, 3-b]-quinazolin-4-ones and 2-Aryloxymethyl-5-substituted-1, 3, 4-thiadiazolo[3, 2-a]-s-triazin-7-thiones as Potential Biocides” (1990)
